Data on eight compounds can be found in patent US20260015350A1, “AZAQUINAZOLINE PAN-KRAS INHIBITORS” (Mirati Therapeutics, Inc., priority 2022, published 2026).

Assay [1] concerns KRas-mediated phosphorylation of ERK in H727 cells. Nature of the assay: Inhibition of KRas-mediated phosphorylation of ERK (Cisbio HTRF pERK), H727 cells. The settings on record: Homo sapiens, NCI-H727, H727 cells; HTRF pERK. In kind it is cell-based. Summed up: (§1)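 Phosphorylated ERK was quantified by HTRF using d2-conjugate and Cryptate antibodies added to lysates for 2 hrs at room temperature.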

In a further assay the target is T1, KRas^G12A (Homo sapiens, UniProt P01116, G12A).
T1 construct: Biotinylated KRas (corresponding to amino acids 1-169, produced at Accelegan Inc.); biotin (biotinylated); purchased Accelegan Inc
Nature of the assay: KRas binding assay (TR-FRET tracer displacement), KRas G12A. The following applies: TR-FRET tracer displacement, KRas G12A.

Another assay addresses T2, KRas^G12V (Homo sapiens, UniProt P01116, G12V).
T2 construct: Biotinylated KRas (corresponding to amino acids 1-169, produced at Accelegan Inc.); biotin (biotinylated); purchased Accelegan Inc
Nature of the assay: KRas binding assay (TR-FRET tracer displacement), KRas G12V.

The target of a further assay is T3, KRas^G12C (Homo sapiens, UniProt P01116, G12C).
T3 construct: Biotinylated KRas (corresponding to amino acids 1-169, produced at Accelegan Inc.); biotin (biotinylated); purchased Accelegan Inc
As to the kind of experiment: KRas binding assay (TR-FRET tracer displacement), KRas G12C. The settings on record: TR-FRET tracer displacement, KRas G12C.

The target of a further assay is T4, KRas^WT (Homo sapiens, UniProt P01116).
T4 construct: Biotinylated KRas (corresponding to amino acids 1-169, produced at Accelegan Inc.); biotin (biotinylated); purchased Accelegan Inc
Nature of the assay: KRas binding assay (TR-FRET tracer displacement), KRas WT. The settings on record: TR-FRET tracer displacement, KRas WT.

The target of a further assay is T5, KRas^G12S (Homo sapiens, UniProt P01116, G12S).
T5 construct: Biotinylated KRas (corresponding to amino acids 1-169, produced at Accelegan Inc.); biotin (biotinylated); purchased Accelegan Inc
Nature of the assay: KRas binding assay (TR-FRET tracer displacement), KRas G12S. The following applies: TR-FRET tracer displacement, KRas G12S.

The target of a further assay is T6, KRas^G12R (Homo sapiens, UniProt P01116, G12R).
T6 construct: Biotinylated KRas (corresponding to amino acids 1-169, produced at Accelegan Inc.); biotin (biotinylated); purchased Accelegan Inc
As to the kind of experiment: KRas binding assay (TR-FRET tracer displacement), KRas G12R.

Assay [2] has as its system KRas-mediated phosphorylation of ERK in AsPC-1 cells. As to the kind of experiment: Inhibition of KRas-mediated phosphorylation of ERK (Cisbio HTRF pERK), AsPC-1 cells. The format is cell-based. The settings on record: Homo sapiens, ASPC1, AsPC-1 cells; HTRF pERK. The method, boiled down: as §1
Another assay addresses T7, KRas^G12D (Homo sapiens, UniProt P01116, G12D).
T7 construct: Biotinylated KRas (corresponding to amino acids 1-169, produced at Accelegan Inc.); biotin (biotinylated); purchased Accelegan Inc
Nature of the assay: KRas binding assay (TR-FRET tracer displacement), KRas G12D.

The next assay has as its target T8, KRas^G13D (Homo sapiens, UniProt P01116, G13D).
T8 construct: Biotinylated KRas (corresponding to amino acids 1-169, produced at Accelegan Inc.); biotin (biotinylated); purchased Accelegan Inc
Nature of the assay: KRas binding assay (TR-FRET tracer displacement), KRas G13D. The following applies: TR-FRET tracer displacement, KRas G13D.

The next assay deals with T9, KRas^Q61H (Homo sapiens, UniProt P01116, Q61H).
T9 construct: Biotinylated KRas (corresponding to amino acids 1-169, produced at Accelegan Inc.); biotin (biotinylated); purchased Accelegan Inc
Nature of the assay: KRas binding assay (TR-FRET tracer displacement), KRas Q61H. The settings on record: TR-FRET tracer displacement, KRas Q61H.

T9 sequence (P01116 1-169 isoform P01116-2 Q61H): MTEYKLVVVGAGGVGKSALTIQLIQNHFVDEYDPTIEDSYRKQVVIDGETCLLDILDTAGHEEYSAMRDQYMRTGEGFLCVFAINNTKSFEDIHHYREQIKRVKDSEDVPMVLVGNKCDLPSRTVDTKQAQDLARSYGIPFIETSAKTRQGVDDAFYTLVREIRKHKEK
T8 sequence (P01116 1-169 isoform P01116-2 G13D): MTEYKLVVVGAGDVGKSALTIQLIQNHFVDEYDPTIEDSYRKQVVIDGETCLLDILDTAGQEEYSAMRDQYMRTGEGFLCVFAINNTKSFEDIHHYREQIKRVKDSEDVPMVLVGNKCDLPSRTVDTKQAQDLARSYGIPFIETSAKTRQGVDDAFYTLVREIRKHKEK
T5 sequence (P01116 1-169 isoform P01116-2 G12S): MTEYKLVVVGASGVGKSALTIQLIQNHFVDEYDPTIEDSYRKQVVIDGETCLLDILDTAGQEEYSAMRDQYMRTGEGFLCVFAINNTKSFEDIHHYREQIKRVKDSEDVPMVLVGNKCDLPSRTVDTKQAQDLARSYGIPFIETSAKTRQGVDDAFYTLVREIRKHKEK
T1 sequence (P01116 1-169 isoform P01116-2 G12A): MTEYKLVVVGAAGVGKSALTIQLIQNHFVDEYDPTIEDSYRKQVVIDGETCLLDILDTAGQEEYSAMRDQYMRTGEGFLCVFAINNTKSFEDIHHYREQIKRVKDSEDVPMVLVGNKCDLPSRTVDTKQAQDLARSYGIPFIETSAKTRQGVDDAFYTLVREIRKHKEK
T7 sequence (P01116 1-169 isoform P01116-2 G12D): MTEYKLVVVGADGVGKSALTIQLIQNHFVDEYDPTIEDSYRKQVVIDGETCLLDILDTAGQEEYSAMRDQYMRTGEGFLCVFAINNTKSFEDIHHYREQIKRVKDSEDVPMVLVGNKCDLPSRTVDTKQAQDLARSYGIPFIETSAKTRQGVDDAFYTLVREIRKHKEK
T4 sequence (P01116 1-169 isoform P01116-2): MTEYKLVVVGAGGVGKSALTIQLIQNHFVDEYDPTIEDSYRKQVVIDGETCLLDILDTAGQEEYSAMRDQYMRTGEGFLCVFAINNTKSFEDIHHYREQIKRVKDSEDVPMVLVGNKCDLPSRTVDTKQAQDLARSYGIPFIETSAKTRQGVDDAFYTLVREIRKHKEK
T2 sequence (P01116 1-169 isoform P01116-2 G12V): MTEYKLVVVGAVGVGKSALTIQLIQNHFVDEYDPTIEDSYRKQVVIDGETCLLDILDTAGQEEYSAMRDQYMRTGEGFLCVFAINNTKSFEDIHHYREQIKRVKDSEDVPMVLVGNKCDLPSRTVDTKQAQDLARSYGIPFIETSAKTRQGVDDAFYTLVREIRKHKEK
T3 sequence (P01116 1-169 isoform P01116-2 G12C): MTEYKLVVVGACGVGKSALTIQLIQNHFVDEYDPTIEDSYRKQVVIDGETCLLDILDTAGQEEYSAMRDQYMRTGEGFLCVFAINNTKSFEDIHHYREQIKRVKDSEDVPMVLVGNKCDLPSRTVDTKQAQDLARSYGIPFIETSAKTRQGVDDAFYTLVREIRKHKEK
T6 sequence (P01116 1-169 isoform P01116-2 G12R): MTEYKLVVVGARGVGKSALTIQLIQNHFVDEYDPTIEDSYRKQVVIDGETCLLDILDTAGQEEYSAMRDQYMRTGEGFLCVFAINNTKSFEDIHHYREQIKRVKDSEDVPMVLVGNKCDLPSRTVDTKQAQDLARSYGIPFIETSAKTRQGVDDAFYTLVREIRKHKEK

Consider `Cc1c(Cl)cc2[nH]ncc2c1-c1ncc2c(N3CCC[C@]4(C3)NC(=O)NC4=O)nc(OCC34CCCN3CCC4)nc2c1F` [Example 766, (5R)-7-(7-(6-chloro-5-methyl-1H-indazol-4-yl)-8-fluoro-2-((hexahydro-1H-pyrrolizin-7a-yl)methoxy)pyrido[4,3-d]pyrimidin-4-yl)-1,3,7-triazaspiro[4.5]decane-2,4-dione], for which the IC50 in assay [1] was greater than 10000 nM; on KRas^G12A, 1160 nM; at KRas^G12V it was 988 nM; at KRas^G12C it was 927 nM; on KRas^WT, 980 nM; on KRas^G12S, 824 nM. Moreover, the 50% inhibitory concentration (IC50) was 1880 nM at KRas^G12R; greater than 10000 nM in assay [2]; 2200 nM at KRas^G12D; 1210 nM on KRas^G13D; 954 nM on KRas^Q61H.
As for `Oc1cc(-c2ncc3c(N4C[C@@H]5C[C@H](C4)[C@H](O)C5)nc(OC[C@@]45CCCN4C[C@H](F)C5)nc3c2F)c2ccccc2c1Cl` [Example 764, (1R,5R,6R)-3-(7-(4-chloro-3-hydroxynaphthalen-1-yl)-8-fluoro-2-(((2R,7aS)-2-fluorohexahydro-1H-pyrrolizin-7a-yl)methoxy)pyrido[4,3-d]pyrimidin-4-yl)-3-azabicyclo[3.2.1]octan-6-ol], the IC50 in assay [1] is greater than 10000 nM; at KRas^G12A, 2410 nM; on KRas^G12V it was 1660 nM; on KRas^G12C, 2390 nM; at KRas^WT, 3090 nM; on KRas^G12S, 1690 nM. Also, the IC50 at KRas^G12R is 3120 nM; in assay [2], greater than 10000 nM; on KRas^G12D, 5530 nM; at KRas^G13D it was 2410 nM; at KRas^Q61H, 3930 nM.
With `O=C1NCC2(CCCN(c3nc(OCC45CCCN4CCC5)nc4c(F)c(-c5c6ccccc6cc6[nH]ncc56)ncc34)C2)N1` (stereo not shown) [Example 756, 7-(7-(1H-benzo[f]indazol-4-yl)-8-fluoro-2-((hexahydro-1H-pyrrolizin-7a-yl)methoxy)pyrido[4,3-d]pyrimidin-4-yl)-1,3,7-triazaspiro[4.5]decan-2-one], the half-maximal inhibitory concentration (IC50) in [1] is greater than 10000 nM; on KRas^G12A it was 14 nM; on KRas^G12V it was 10 nM; on KRas^G12C, 12 nM; at KRas^WT, 13 nM; on KRas^G12S, 13 nM. The IC50 was 17 nM at KRas^G12R; greater than 10000 nM in [2]; 11 nM on KRas^G12D; 13 nM at KRas^G13D; 13 nM at KRas^Q61H.
In the case of `O=C1NC(=O)C2(CCCN(c3nc(OCC45CCCN4CCC5)nc4c(F)c(-c5cc(O)cc(Cl)c5C5CC5)ncc34)C2)N1` (stereo not shown) [Example 739, 7-(7-(3-chloro-2-cyclopropyl-5-hydroxyphenyl)-8-fluoro-2-((hexahydro-1H-pyrrolizin-7a-yl)methoxy)pyrido[4,3-d]pyrimidin-4-yl)-1,3,7-triazaspiro[4.5]decane-2,4-dione], the IC50 was greater than 10000 nM in assay [1]; 2 nM at KRas^G12A; less than 2 nM on KRas^G12V; less than 2 nM at KRas^G12C; less than 2 nM on KRas^WT; less than 2 nM on KRas^G12S. The IC50 at KRas^G12R is less than 2 nM; in assay [2] it was greater than 10000 nM; on KRas^G12D it was 3 nM; on KRas^G13D, less than 2 nM; at KRas^Q61H, less than 2 nM.
As to `O=C1NC(=O)C2(CCCN(c3nc(OC[C@@]45CCCN4C[C@H](F)C5)nc4c(F)c(-c5c6ccccc6cc6[nH]ncc56)ncc34)C2)N1` (stereo partly drawn) [Example 759, 7-(7-(1H-benzo[f]indazol-4-yl)-8-fluoro-2-(((2R,7aS)-2-fluorohexahydro-1H-pyrrolizin-7a-yl)methoxy)pyrido[4,3-d]pyrimidin-4-yl)-1,3,7-triazaspiro[4.5]decane-2,4-dione], the IC50 in [1] was greater than 10000 nM; on KRas^G12A it was 8 nM; on KRas^G12V, 4 nM; on KRas^G12C, 7 nM; on KRas^WT, 8 nM; on KRas^G12S, 7 nM. Further, the IC50 is 6 nM on KRas^G12R; greater than 10000 nM in assay [2]; 8 nM at KRas^G12D; 7 nM on KRas^G13D; 5 nM on KRas^Q61H.
In the case of `Oc1cc(Cl)c(C2CC2)c(-c2ncc3c(N4C[C@H]5C[C@@H](C4)[C@H](O)C5)nc(OCC45CCCN4CCC5)nc3c2F)c1` [Example 738, (1S,5S,6R)-3-(7-(3-chloro-2-cyclopropyl-5-hydroxyphenyl)-8-fluoro-2-((tetrahydro-1H-pyrrolizin-7a(5H)-yl)methoxy)pyrido[4,3-d]pyrimidin-4-yl)-3-azabicyclo[3.2.1]octan-6-ol], the IC50 in [1] worked out at 1510 nM; at KRas^G12A it was 11 nM; at KRas^G12V it was 3 nM; on KRas^G12C it was 9 nM; at KRas^WT, 11 nM; on KRas^G12S, 9 nM. For the same compound, the IC50 at KRas^G12R worked out at 2 nM; in assay [2] it was 5960 nM; at KRas^G12D, 17 nM; on KRas^G13D it was 10 nM; on KRas^Q61H, 9 nM.
Turning to `Cc1cc2[nH]ncc2c(-c2ncc3c(N4CCCC5(CNC(=O)N5)C4)nc(OCC45CCCN4CCC5)nc3c2F)c1C` (stereo not shown) [Example 729, 7-(7-(5,6-dimethyl-1H-indazol-4-yl)-8-fluoro-2-((hexahydro-1H-pyrrolizin-7a-yl)methoxy)pyrido[4,3-d]pyrimidin-4-yl)-1,3,7-triazaspiro[4.5]decan-2-one], the IC50 was greater than 10000 nM in [1]; 48 nM on KRas^G12A; 36 nM on KRas^G12V; 40 nM on KRas^G12C; 45 nM at KRas^WT; 40 nM at KRas^G12S. Also, the IC50 at KRas^G12R was 61 nM; in assay [2], greater than 10000 nM; on KRas^G12D, 26 nM; on KRas^G13D, 46 nM; at KRas^Q61H, 53 nM.
For `Cc1cc2[nH]ncc2c(-c2ncc3c(N4CC5C(=O)NC(=O)C5C4)nc(OCC45CCCN4CCC5)nc3c2F)c1C` (stereo not shown) [Example 726, 5-(7-(5,6-dimethyl-1H-indazol-4-yl)-8-fluoro-2-((hexahydro-1H-pyrrolizin-7a-yl)methoxy)pyrido[4,3-d]pyrimidin-4-yl)tetrahydropyrrolo[3,4-c]pyrrole-1,3(2H,3aH)-dione], the IC50 in assay [1] was greater than 10000 nM; on KRas^G12A, 242 nM; on KRas^G12V, 131 nM; at KRas^G12C, 208 nM; on KRas^WT, 145 nM; at KRas^G12S, 68 nM. The IC50 at KRas^G12R was 344 nM; in [2] it was greater than 10000 nM; on KRas^G12D, 58 nM; at KRas^G13D, 138 nM; on KRas^Q61H, 177 nM.
